We go through twelve compounds from PubChem BioAssay (NCI).

Test systems include CAKI-1 renal; COLO 205 colon; EKVX NSCLC; HCT-116 colon; HL-60(TB) leukemia; HOP-62 NSCLC; IGROV1 ovarian; K-562 leukemia; LOX IMVI melanoma; MDA-MB-231 breast; MOLT-4 leukemia; NCI-H226 lung; OVCAR-5 ovarian; PC-3 prostate; RPMI-8226 leukemia; SK-MEL-28 melanoma; SNB-19 CNS; SR leukemia; UACC-257 melanoma; A498 renal.
What all share (assay): inhibition of tumour cell growth, NCI panel, 48 h

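How tested: cells in 96-well plates exposed to compound for 48 hours at five concentrations. TGI: total growth inhibition.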 Bounds are passed on as bounds.

Turning to `N=C1/C(=C/c2ccco2)C(=O)N=C2SC=NN12`, the TGI with CAKI-1 renal, with COLO 205 colon, in the test on EKVX NSCLC, in the test on HCT-116 colon, in the test on HL-60(TB) leukemia and in the test with HOP-62 NSCLC was above 100 µM in each case. Besides, the TGI in the test on IGROV1 ovarian, with K-562 leukemia, in the test with LOX IMVI melanoma, with MDA-MB-231 breast, in the test with MOLT-4 leukemia and in the test on NCI-H226 lung was above 100 µM in each case. Further, the TGI in the test with OVCAR-5 ovarian, in the test with PC-3 prostate, in the test with RPMI-8226 leukemia, in the test with SK-MEL-28 melanoma, in the test with SNB-19 CNS and in the test on SR leukemia was above 100 µM throughout. This compound also yielded a TGI with UACC-257 melanoma above 100 µM.
Take `Cn1cc(S(=O)(=O)NC(=O)Nc2ccc(Cl)cc2)c(=O)c2ccc(Cl)cc21`: the TGI in the test with CAKI-1 renal, in the test with EKVX NSCLC, with HCT-116 colon, in the test on HOP-62 NSCLC, in the test on IGROV1 ovarian and with K-562 leukemia was above 100 µM each time. Moreover, the TGI in the test on LOX IMVI melanoma, in the test with MDA-MB-231 breast, with MOLT-4 leukemia, with NCI-H226 lung, with OVCAR-5 ovarian and with PC-3 prostate was above 100 µM throughout. Further, the TGI with SK-MEL-28 melanoma, in the test on SNB-19 CNS, in the test on SR leukemia and with UACC-257 melanoma was above 100 µM throughout.
With `Cc1ccc(N/N=C/C2=CC(C)(C)C(C#N)(C#N)C(O)=C2C#N)cc1`, the TGI in the test with CAKI-1 renal was 69.5 µM; in the test on COLO 205 colon, above 100 µM; in the test with EKVX NSCLC it was above 100 µM; in the test with HCT-116 colon it was above 100 µM; in the test on HL-60(TB) leukemia, 58.1 µM; with HOP-62 NSCLC it was above 100 µM. Also, the TGI in the test with IGROV1 ovarian, in the test on K-562 leukemia, in the test on LOX IMVI melanoma, with MDA-MB-231 breast, in the test with MOLT-4 leukemia and in the test with NCI-H226 lung was above 100 µM in each case. In addition, the TGI in the test on OVCAR-5 ovarian was above 100 µM; in the test on PC-3 prostate, 58.7 µM; in the test with RPMI-8226 leukemia, 93.7 µM; in the test with SK-MEL-28 melanoma, above 100 µM; in the test with SNB-19 CNS, above 100 µM; in the test on SR leukemia, 91.2 µM. Moreover, the TGI in the test with UACC-257 melanoma was above 100 µM.
Take `COc1c(C(=O)/C(=N/Nc2cccc(Cl)c2)C(C)=O)c(O)c(OC)c2occc12`: the TGI in the test with CAKI-1 renal, in the test with COLO 205 colon, in the test on EKVX NSCLC, with HCT-116 colon, with HL-60(TB) leukemia and in the test on HOP-62 NSCLC was above 100 µM throughout. The TGI in the test with IGROV1 ovarian, with K-562 leukemia, in the test on LOX IMVI melanoma, in the test with MDA-MB-231 breast, in the test on MOLT-4 leukemia and with NCI-H226 lung was above 100 µM each time. Further, the TGI with OVCAR-5 ovarian, in the test with PC-3 prostate, with RPMI-8226 leukemia, in the test with SK-MEL-28 melanoma, in the test on SNB-19 CNS and with SR leukemia was above 100 µM each time. In the test with UACC-257 melanoma, this compound returned a TGI above 100 µM.
For `O=S(Nc1ccccc1)c1ccccc1Oc1ccccc1` (stereo not drawn), the TGI in the test on CAKI-1 renal is above 100 µM; with COLO 205 colon it was above 100 µM; in the test on EKVX NSCLC, 79.1 µM; in the test with HCT-116 colon it was above 100 µM; in the test on HL-60(TB) leukemia it was above 100 µM; with HOP-62 NSCLC, above 100 µM. In addition, the TGI with IGROV1 ovarian was 12.6 µM; with K-562 leukemia, above 100 µM; in the test on LOX IMVI melanoma, above 100 µM; in the test on MDA-MB-231 breast, above 100 µM; in the test with MOLT-4 leukemia, above 100 µM; with NCI-H226 lung it was above 100 µM. Also, the TGI with OVCAR-5 ovarian, in the test on PC-3 prostate, in the test with RPMI-8226 leukemia, with SK-MEL-28 melanoma, in the test with SNB-19 CNS and in the test on SR leukemia was above 100 µM in each case. This compound also gave a TGI in the test with UACC-257 melanoma above 100 µM.
With `Cc1nnc(N2C(=O)C(=Cc3ccc(Cl)cc3)N=C2c2ccc(Cl)cc2)nc1/C=C\c1ccc(N(C)C)cc1`, the TGI in the test with A498 renal, with CAKI-1 renal, in the test with COLO 205 colon, in the test on EKVX NSCLC, in the test on HCT-116 colon and with HL-60(TB) leukemia was above 100 µM in each case. In addition, the TGI in the test on HOP-62 NSCLC, in the test with IGROV1 ovarian, with K-562 leukemia, in the test on LOX IMVI melanoma, in the test on MDA-MB-231 breast and in the test on MOLT-4 leukemia was above 100 µM in each case. For the same compound, the TGI in the test with NCI-H226 lung, in the test with OVCAR-5 ovarian, in the test with PC-3 prostate, with RPMI-8226 leukemia, in the test on SK-MEL-28 melanoma and in the test on SNB-19 CNS was above 100 µM throughout. Moreover, the TGI with UACC-257 melanoma was above 100 µM.
`O=S(=O)(Nc1nc2ccccc2nc1Nc1cccc2ccccc12)c1ccccc1`: the TGI with CAKI-1 renal was above 100 µM; in the test on EKVX NSCLC it was above 100 µM; in the test with HCT-116 colon, above 100 µM; with HOP-62 NSCLC it was 33 µM; in the test with IGROV1 ovarian it was above 100 µM; in the test with K-562 leukemia it was above 100 µM. Also, the TGI in the test on LOX IMVI melanoma is above 100 µM; in the test on MDA-MB-231 breast it was 43.9 µM; with NCI-H226 lung it was above 100 µM; in the test on OVCAR-5 ovarian, above 100 µM; with PC-3 prostate, above 100 µM; with RPMI-8226 leukemia, above 100 µM. The TGI is above 100 µM with SK-MEL-28 melanoma, 61.2 µM with SNB-19 CNS, above 100 µM in the test on SR leukemia and above 100 µM in the test on UACC-257 melanoma.
Regarding `Cc1cccc(C)c1NC(=O)C(=O)C(c1ccccc1Cl)S(=O)(=O)Cc1ccccc1Cl` (stereo not drawn), the TGI with CAKI-1 renal was above 100 µM; in the test on COLO 205 colon it was above 100 µM; in the test on EKVX NSCLC, above 100 µM; in the test with HCT-116 colon it was above 100 µM; with HL-60(TB) leukemia, 0.533 µM; in the test on HOP-62 NSCLC it was 45.4 µM. Also, the TGI in the test on IGROV1 ovarian was above 100 µM; with K-562 leukemia, above 100 µM; with LOX IMVI melanoma, above 100 µM; in the test on MDA-MB-231 breast, above 73.4 µM; in the test on MOLT-4 leukemia, above 100 µM; in the test with NCI-H226 lung, above 100 µM. Further, the TGI in the test on OVCAR-5 ovarian is above 100 µM; with PC-3 prostate, above 100 µM; in the test with RPMI-8226 leukemia, above 100 µM; with SK-MEL-28 melanoma it was above 100 µM; with SNB-19 CNS, above 92 µM; with SR leukemia, above 100 µM. This compound also returned a TGI with UACC-257 melanoma above 100 µM.
As to `CN(C)CCn1c2c(c3ccccc31)CCc1ccccc1-2`, the TGI with CAKI-1 renal was found to be 29.4 µM; in the test with COLO 205 colon, 25.6 µM; with EKVX NSCLC it was 32.4 µM; with HCT-116 colon, 26.3 µM; in the test with HOP-62 NSCLC, 29.1 µM; in the test with IGROV1 ovarian, 21.8 µM. Also, the TGI in the test with LOX IMVI melanoma came out at 32.2 µM; in the test on MDA-MB-231 breast, 29.3 µM; in the test on MOLT-4 leukemia, 29.1 µM; with NCI-H226 lung, 26 µM; in the test on OVCAR-5 ovarian it was 31.7 µM; in the test with PC-3 prostate it was 23.5 µM. Further, the TGI in the test on RPMI-8226 leukemia came out at 28.3 µM; in the test with SK-MEL-28 melanoma, 29.9 µM; in the test on SNB-19 CNS, 33.5 µM; in the test on SR leukemia it was 27.1 µM; in the test on UACC-257 melanoma it was 27.7 µM.
With `c1cc2c(cc1NC1=NCCO1)CCCC2`, the TGI was 9.74 µM in the test with A498 renal; above 88.1 µM with CAKI-1 renal; 3.8 µM with COLO 205 colon; 47 µM in the test on EKVX NSCLC; 16 µM with HCT-116 colon; 7.5 µM in the test with HL-60(TB) leukemia. In addition, the TGI with HOP-62 NSCLC was 10.9 µM; with IGROV1 ovarian, 23.5 µM; in the test on K-562 leukemia, above 24.5 µM; in the test with LOX IMVI melanoma it was 11.1 µM; in the test with MDA-MB-231 breast, 6.1 µM; in the test on MOLT-4 leukemia it was 9.67 µM. The TGI is 11.4 µM in the test on NCI-H226 lung; 39.7 µM with OVCAR-5 ovarian; 15.5 µM with PC-3 prostate; 12 µM with RPMI-8226 leukemia; 27.2 µM in the test on SK-MEL-28 melanoma; above 84.2 µM in the test with SNB-19 CNS. In addition, in the test with UACC-257 melanoma, the TGI was above 28.1 µM.
With `O=C1C(=Cc2cccc(Cl)c2)N=C(c2ccccc2)N1n1c(-c2ccccc2)nc2ccccc2c1=O`, the TGI was above 100 µM in the test with CAKI-1 renal; above 100 µM in the test with COLO 205 colon; above 100 µM in the test with EKVX NSCLC; above 100 µM in the test with HCT-116 colon; above 100 µM in the test on HL-60(TB) leukemia; 99.8 µM in the test with HOP-62 NSCLC. The TGI in the test with IGROV1 ovarian, in the test on K-562 leukemia, in the test with LOX IMVI melanoma, with MDA-MB-231 breast, in the test with MOLT-4 leukemia and in the test on NCI-H226 lung was above 100 µM each time. In addition, the TGI with OVCAR-5 ovarian, with PC-3 prostate, with RPMI-8226 leukemia, with SK-MEL-28 melanoma, in the test with SNB-19 CNS and in the test on SR leukemia was above 100 µM throughout. In addition, the TGI in the test on UACC-257 melanoma was above 100 µM.
On to `O=C(O)COc1cc(-c2ccccc2F)nc2cc3c(cc12)OCO3`, for which the TGI in the test with CAKI-1 renal, in the test on COLO 205 colon, in the test on EKVX NSCLC, with HCT-116 colon, in the test with HOP-62 NSCLC and with IGROV1 ovarian was above 100 µM each time. For the same compound, the TGI in the test with K-562 leukemia, in the test with LOX IMVI melanoma, with MDA-MB-231 breast, with MOLT-4 leukemia, with NCI-H226 lung and in the test with OVCAR-5 ovarian was above 100 µM throughout. The TGI in the test with PC-3 prostate, with RPMI-8226 leukemia, in the test on SK-MEL-28 melanoma, in the test on SR leukemia and in the test on UACC-257 melanoma was above 100 µM each time.
